# Calls of active or inactive are those of the source. No cut-off for these calls is given here.
# Legend:
# [1] = system: Nucleic Acid; test: Induction of single strand cleavage in supercoiled pDesR3 DNA at 10 uM after 3 hrs by agarose gel electrophoresis in presence of equimolar Cu(OAc)2 and DMSO; format: nucleic-acid assay
# [2] = system: Nucleic Acid; test: Induction of single strand cleavage in supercoiled pDesR3 DNA at 10 uM after 3 hrs by agarose gel electrophoresis in presence of equimolar Cu(OAc)2 and t-BuOH; format: nucleic-acid assay
# [3] = system: Nucleic Acid; test: Induction of single strand cleavage in laser-enhanced supercoiled pDesR3 DNA assessed as reduction in time required for single-strand break at 10 uM after 5 mins by agarose gel electrophoresis relative to control in presence of equimolar Cu(OAc)2; format: nucleic-acid assay; design: scale not given: the % may be the effect or the level left
# [4] = system: Nucleic Acid; test: Induction of single strand cleavage in supercoiled pDesR3 DNA at 10 uM after 3 hrs by agarose gel electrophoresis in presence of equimolar Cu(OAc)2 and SOD; format: nucleic-acid assay
# [5] = system: T47D; test: Cytotoxicity against human T47D cells; format: functional, cell-based
# [6] = system: Nucleic Acid; test: Induction of single strand cleavage in supercoiled pDesR3 DNA at 10 uM after 3 hrs by agarose gel electrophoresis in presence of equimolar Cu(OAc)2 and NaN3; format: nucleic-acid assay
# [7] = system: Nucleic Acid; test: Induction of supercoiled pDesR3 DNA cleavage assessed as half life of DNA cleavage after 2 to 12 hrs by agarose gel electrophoresis; format: nucleic-acid assay
# [8] = system: Nucleic Acid; test: Induction of supercoiled pDesR3 DNA cleavage after 2 to 12 hrs by agarose gel electrophoresis; format: nucleic-acid assay
# [9] = system: Nucleic Acid; test: Induction of double strand cleavage in supercoiled pDesR3 DNA at 10 uM after 2 to 12 hrs by agarose gel electrophoresis in presence of equimolar Cu(OAc)2; format: nucleic-acid assay
# [10] = system: Nucleic Acid; test: Induction of supercoiled pDesR3 DNA cleavage at 10 uM after 2 to 12 hrs by agarose gel electrophoresis; format: nucleic-acid assay
# [11] = system: Nucleic Acid; test: Induction of single strand cleavage in supercoiled pDesR3 DNA at 10 uM after 2 to 12 hrs by agarose gel electrophoresis in presence of equimolar Cu(OAc)2; format: nucleic-acid assay
# [12] = system: Nucleic Acid; test: Binding affinity at calf thymus DNA at 10 uM by UV-Vis spectrophotometer; format: nucleic-acid assay; conditions: Bos taurus
# [13] = system: MDA-MB-435; test: Cytotoxicity against human MDA-MB-435 cells; format: functional, cell-based
# [14] = system: Nucleic Acid; test: Induction of single strand cleavage in supercoiled pDesR3 DNA at 10 uM after 3 hrs by agarose gel electrophoresis in presence of equimolar Cu(OAc)2 and catalase; format: nucleic-acid assay
# [15] = system: Nucleic Acid; test: Induction of single strand cleavage in supercoiled pDesR3 DNA at 10 uM after 3 hrs by agarose gel electrophoresis in presence of equimolar Cu(OAc)2 and EDTA; format: nucleic-acid assay
smiles,measurement,setting,value
CC[C@H](C)[C@H]1C(=O)O[C@H]2c3cc(C)cc(O)c3C3=C(C(=O)c4c(O[C@H]5C[C@@H](O)[C@@H](O)[C@H](C)O5)cccc4C3=O)N12 [JADOMYCIN B],Activity,[1],inactive
same,Activity,[2],inactive
same,Activity,[3],98%
same,Activity,[4],inactive
same,EC50,[5],9.92 µM
same,Activity,[6],inactive
same,T1/2,[7],45 min
same,EC50,[8],1700 nM
same,Activity,[9],inactive
same,Activity,[10],inactive
same,Activity,[11],Active
same,Activity,[12],inactive
same,EC50,[13],6.89 µM
same,Activity,[14],inactive
same,Activity,[15],inactive
